Reference: US20220249376A1, “NANOVESICLES AND ITS USE FOR NUCLEIC ACID DELIVERY” (FUNDACIÓ HOSPITAL UNIVERSITARI VALL D'HEBRON - INSTITUT DE …, priority 2019, published 2022)

Tested on: miR-323a-5p
Test: miR-323a-5p expression levels by qPCR after transfection
Type: cell-based
Settings: SK-N-BE(2), miRNA 50 nM
Description: For in vitro experiments, SK-N-BE(2) neuroblastoma cells were reverse transfected with the addition of the QS-sRNA complexes to complete cell culture medium (IMDM, 10% heat-inactivated foetal bovine serum (FBS) South America Premium (Biowest, Nuaillé, France)) without antibiotics. After overnight (o/n) incubation media was changed for IMDM supplemented with 10% FBS and antibiotics.
Total RNA including small RNAs was extracted using the miRNeasy Mini Kit (Qiagen, Las Matas, Spain). mRNAs were reverse transcribed (0.5 μg total RNA) using Taqman RT kit (#4366596; Applied Biosystems, Thermo Fisher Scientific), and mature miRNA expression analysis was quantified using Taqman microRNA assays (#4440047; Applied Biosystems, Thermo Fisher Scientific) following manufacturer's recommendations. cDNA was quantified by standard RT-qPCR methodology using 2× Power SYBR Green Master Mix (Applied Biosystems, Thermo Fisher Scientific) using the ABI700SDS equipment. […] The relative fold-change Relative quantification of gene expression was performed with a comparative 2^(−ΔΔCT) method (Livak K J, Schmittgen T D. Analysis of relative gene expression data using real-time quantitative PCR and the 2(−Delta Delta C(T)) method. Methods 2001; 25: 402-408).
The RNU44 is as a housekeeping gene, commonly used to normalize the smallRNA content in the analyzed samples. […]

“miRNA naked: miRIDIAN hsa-miR-323a-5p mimic AGGUGGUCCGUGGCGCGUUCGC (SEQ ID NO: 1), not complexed (listed as RNA, chemistry not given here)” was tested, and the miR-323a-5p expression levels was “could not increase”.
